Measurements from patent US10377734B2, “Resist composition, method for forming resist pattern, polyphenol derivative for use in the composition” (Mitsubishi Gas Chemical Company, Inc., priority 2013, dated 2019).

Assay: Solubility test of compound in safe solvent
Format: physicochemical
Settings: 23° C., ultrasonic wave 30 minutes, visual evaluation; for Solubility test of compound in safe solvent CHN: CHN (cyclohexanone); for Solubility test of compound in safe solvent PGME: PGME (propylene glycol monomethyl ether)
Procedure: (1) Solubility Test of Compound in Safe Solvent
The solubility of the compound in CHN, PGME and PGMEA was evaluated according to the following standard using the dissolution amount in each solvent. The dissolution amount was determined by precisely weighing the compound in a test tube at 23° C.; adding the target solvent to the compound so that a predetermined concentration of the liquid to be obtained was set; applying a ultrasonic wave to the liquid in an ultrasonic washing machine for 30 minutes; and visually evaluating the state of the resulting liquid.
A: 5.0% by mass Dissolution amount
B: 3.0% by mass Dissolution amount <5.0% by mass
C: Dissolution amount <3.0% by mass

SMILES	Solubility test of compound in safe solvent CHN	Solubility test of compound in safe solvent PGME	Solubility test of compound in safe solvent PGMEA
CC(C)(C)OC(=O)Oc1ccc2c(C(c3ccc(-c4ccccc4)cc3)c3c(OC(=O)OC(C)(C)C)ccc4cc(OC(=O)OC(C)(C)C)ccc34)c(OC(=O)OC(C)(C)C)ccc2c1 [BisN-1-BOC]	A (5.0% by mass Dissolution amount)	B (3.0% by mass Dissolution amount <5.0% by mass)	A (5.0% by mass Dissolution amount)
CC(C)(C)OC(=O)COc1ccc2c(C(c3ccc(-c4ccccc4)cc3)c3c(OCC(=O)OC(C)(C)C)ccc4cc(OCC(=O)OC(C)(C)C)ccc34)c(OCC(=O)OC(C)(C)C)ccc2c1 [BisN-1-MeBOC]	A (5.0% by mass Dissolution amount)	A (5.0% by mass Dissolution amount)	B (3.0% by mass Dissolution amount <5.0% by mass)
CC(C)(C)OC(=O)Oc1ccc(C(c2ccc(OC(=O)OC(C)(C)C)cc2)c2ccc3ccc(C(c4ccc(OC(=O)OC(C)(C)C)cc4)c4ccc(OC(=O)OC(C)(C)C)cc4)cc3c2)cc1 [TetP-1-BOC, reference compound]	A (5.0% by mass Dissolution amount)	A (5.0% by mass Dissolution amount)	A (5.0% by mass Dissolution amount)
CC(C)(C)OC(=O)Oc1ccc2c3c(ccc2c1)Oc1ccc2cc(OC(=O)OC(C)(C)C)ccc2c1C3c1ccc(-c2ccccc2)cc1 [XBisN-1-BOC]	A (5.0% by mass Dissolution amount)	B (3.0% by mass Dissolution amount <5.0% by mass)	A (5.0% by mass Dissolution amount)
CC(C)(C)OC(=O)COc1ccc2c3c(ccc2c1)Oc1ccc2cc(OCC(=O)OC(C)(C)C)ccc2c1C3c1ccc(-c2ccccc2)cc1 [XBisN-1-MeBOC]	A (5.0% by mass Dissolution amount)	A (5.0% by mass Dissolution amount)	B (3.0% by mass Dissolution amount <5.0% by mass)
